Measured values as given in patent US20230093476A1, “SUBSTITUTED FUSED IMIDAZOLE DERIVATIVES AND METHODS OF TREATING REFRACTIVE OCULAR DISORDERS” (vTv Therapeutics LLC, priority 2020, published 2023).

Legend:
[1] = test system: mouse lens; assay: Lens elasticity under 2-week repeated topical instillation (TID), coverslip method; type: in vivo, C57BL/6J mice; conditions: for Right Eye Change in Diameter (μm) (Mean ± S.E.): treated right eye; for Right Eye Change in Diameter (μm) (Mean ± S.E.) / efficacy compared with 1.5% solutions comprising LACE: TID; for Right Eye Change in Diameter (μm) (Mean ± S.E.) / efficacy compared with 1.5% solutions comprising LACE / elasticity of the mouse lenses: 2 weeks; for efficacy compared with 1.5% solutions comprising LACE: 0.5% and 1.5% solutions; for elasticity of the mouse lenses: repeated instillation of 0.15%, 0.5%, 1.5% solutions TID
Protocol: Test compounds (Examples 46 and 134), positive control of Lipoic Acid Choline Ester (LACE), and control treatment were topically administered to right eyes according to methods described in Invest Ophthalmol Vis Sci. 2016; 57:2851-2863. Briefly, eight month old C57BL/6J mice (male) were treated with 2.5 μL of each test sample three times per day (TID) at about 4-hour intervals in the right eyes for 2 weeks. The left eyes were used as untreated controls. Each treatment group included 10 mice, and the vehicle group included 5 mice.
(§1) Measurement of lens elasticity was performed according to the methods described in Invest Ophthalmol Vis Sci. 2016; 57:2851-2863. Briefly, after 2-week treatment, mice were euthanized by CO2 overdose. Lenses were removed and analyzed for changes in elasticity. Lenses were placed on slides and photographed. A second photograph was taken after a coverslip was placed on the lens. Equatorial diameters changed by the coverslips placed on the lens were analyzed.

[2] = test system: lens from aged mice; assay: In vitro lens elasticity, coverslip method, cultured lenses from aged mice; type: cell-based, C57BL/6J mice; conditions: for efficacy compared with positive control groups using lipoic acid: 50 μM and 500 μM; for Change in Diameter (μm) (Mean ± S.E.): about 14 hours incubation at 37° C., mouse lens; for lens elasticity relative to control: both concentrations of 50 μM and 500 μM; for dose dependence of elasticity increase: from the lower dose (50 μM) to the higher dose (500 μM)
Protocol: Test compounds (Examples 46 and 134) at 50 μM and 500 μM, Positive Control of Lipoic Acid at 50 μM and 500 μM, and control treatment were administered to lenses (12 per group) according to methods described in Invest Ophthalmol Vis Sci. 2016; 57:2851-2863. Briefly, seven month old C57BL/6J mice (male) were euthanized by CO2 overdose. Lenses were removed and placed in culture medium. Lenses were incubated for about 2 hours at 37° C. The medium was replaced with fresh medium supplemented with test compounds or with fresh medium. After about 14 hours incubation at 37° C., lenses were removed from culture medium.
as §1, with “lenses” for “after 2-week treatment, mice were euthanized by CO2 overdose. Lenses were removed and analyzed for changes in elasticity. Lenses”

[3] = Table 2, left eye = untreated control eye of mice given 1.5% solution in right eye
[4] = Table 3, left eye = untreated control eye of mice given 1.5% solution in right eye

Compound | Right Eye Change in Diameter (μm) (Mean ± S.E.) ([1]; Table 2, 1.5% solution) | Left Eye Change in Diameter (μm) (Mean ± S.E.) [1, 3] | Right Eye Change in Diameter (μm) (Mean ± S.E.) ([1]; Table 3, 1.5% solution) | Left Eye Change in Diameter (μm) (Mean ± S.E.) [1, 4] | efficacy compared with positive control groups using lipoic acid [2] | Change in Diameter (μm) (Mean ± S.E.) ([2]; 50 μM) | Change in Diameter (μm) (Mean ± S.E.) ([2]; 500 μM) | lens elasticity relative to control [2] | dose dependence of elasticity increase [2] | efficacy compared with 1.5% solutions comprising LACE [1] | Right Eye Change in Diameter (μm) (Mean ± S.E.) ([1]; Table 2, 0.15% solution) | Right Eye Change in Diameter (μm) (Mean ± S.E.) ([1]; Table 2, 0.5% solution) | Left Eye Change in Diameter (μm) (Mean ± S.E.) ([1]; Table 2, left eye = untreated control eye of mice given 0.15% solution in right eye) | Left Eye Change in Diameter (μm) (Mean ± S.E.) ([1]; Table 2, left eye = untreated control eye of mice given 0.5% solution in right eye) | elasticity of the mouse lenses [1] | Right Eye Change in Diameter (μm) (Mean ± S.E.) ([1]; Table 3, 0.15% solution) | Right Eye Change in Diameter (μm) (Mean ± S.E.) ([1]; Table 3, 0.5% solution) | Left Eye Change in Diameter (μm) (Mean ± S.E.) ([1]; Table 3, left eye = untreated control eye of mice given 0.15% solution in right eye) | Left Eye Change in Diameter (μm) (Mean ± S.E.) ([1]; Table 3, left eye = untreated control eye of mice given 0.5% solution in right eye)
C[N+](C)(C)CCOC(=O)CCCC[C@@H]1CCSS1 [LACE, Lipoic Acid Choline Ester, reference compound] | 64.5 ± 4.5 μm | 41.5 ± 5.2 μm | 60.8 ± 2.9 μm | 30.1 ± 6.0 μm | – | – | – | – | – | – | – | – | – | – | – | – | – | – | –
CN(C)C(=O)CNC(=O)c1ccc2c(c1)nc(Nc1nc3ccc(C(F)(F)F)cc3s1)n2C [Example 134, 1-Methyl-2-(6-trifluoromethyl-benzothiazol-2-ylamino)-1H-benzimidazole-5-carboxylic acid dimethylcarbamoylmethyl-amide] | 80.0 ± 5.3 μm | 39.7 ± 6.5 μm | – | – | almost the same | 59.6 ± 3.4 μm | 72.3 ± 4.0 μm | significantly increased | dose dependent increase | better than or equivalent to | 46.0 ± 5.0 μm | 74.3 ± 8.3 μm | 33.5 ± 5.9 μm | 51.7 ± 5.3 μm | significantly increased | – | – | – | –
O=C(O)CCCC[C@@H]1CCSS1 (racemic) [Lipoic Acid, reference compound] | – | – | – | – | – | 63.8 ± 6.5 μm | 83.8 ± 7.4 μm | – | – | – | – | – | – | – | – | – | – | – | –
Cn1c(Nc2nc3ccc(OC(F)(F)F)cc3s2)nc2cc(C(=O)NCCOCCO)ccc21 [Example 46, 1-Methyl-2-(6-trifluoromethoxy-benzothiazol-2-ylamino)-1H-benzoimidazole-5-carboxylic acid [2-(2-hydroxy-ethoxy)-ethyl]-amide] | – | – | 62.7 ± 3.4 μm | 41.3 ± 3.9 μm | almost the same | 67.4 ± 5.6 μm | 80.4 ± 5.3 μm | significantly increased | dose dependent increase | better than or equivalent to | – | – | – | – | significantly increased | 42.3 ± 4.0 μm | 63.2 ± 5.4 μm | 32.2 ± 4.3 μm | 34.7 ± 4.5 μm
